Laboratory results as given in patent US10750729B2, “Pig for atrioventricular block model, monkey for atrioventricular block model, guinea pig for atrioventricular block model, and use thereof” (Toho University, priority 2012, dated 2020).
Values joined by “and” are separate entries in the source; they are usually repeats but may differ in a detail not shown here. Equal values may be shown once.

Tests used:
[1] = system: Monkeys (Macaca fascicularis); assay: Test Example 2: electrocardiogram of halothane-anesthetized monkeys; format: in vivo; conditions: monkey, 50 min after the administration
Experimental: (§1) Monkeys (Macaca fascicularis, body weight: about 3 kg, male, produced in China, purchased from a domestic breeder) were each anesthetized by intravenously administering thereto sodium thiopental (product of Mitsubishi Tanabe Pharma Corporation) at 25 mg/kg. After insertion of a tracheal cannula, an artificial respirator was used to ventilate it with 100% by volume oxygen and 1% by volume vaporized halothane. Here, the artificial respirator for experimental animals was set to a tidal volume of 20 mL/kg and a respiration rate of 15 strokes/min. Next, a cannula for drug administration was inserted to their left femoral vein. Then, ECG standard limb II leads was continuously recorded.
Each of the monkeys (n=2) of Example 2 was recorded for an electrocardiogram before drug administration.
Fingolimod (FTY720, product of Sigma-Aldrich Inc.) was dissolved in physiological saline (product of Otsuka Pharmaceutical Factory, Inc.) so as to have a concentration of 0.1 mg/mL.
After the evaluation of base control, the cannula for drug administration was inserted, and the above-prepared FTY720 solution was intravenously administered to each of the monkeys (n=2) of Example 2 for 10 min at a dose of 0.1 mg/kg. An electrocardiogram was recorded for 60 min from the start of administration of the FTY720 solution.

[2] = system: Dogs; assay: Comparative Test Example 1: electrocardiogram of halothane-anesthetized dogs; format: in vivo; conditions: dog, 30 min recording
Experimental: as §1, with “Dogs (body” for “Monkeys (Macaca fascicularis, body”, “10” for “about 3”, “obtained” for “produced in China, purchased”, “Nosan Co., Ltd.)” for “a domestic breeder)”, “30” for “25”
Each of the dogs (n=4) of Comparative Example 1 was recorded for an electrocardiogram before drug administration.
Fingolimod (FTY720, product of Sigma-Aldrich Inc.) was dissolved in 1% by mass lactic acid solution (product of Otsuka Pharmaceutical Factory, Inc.) so as to have a concentration of 0.3 mg/mL.
(§2) After the evaluation of base control, the cannula for drug administration was inserted, and the above-prepared FTY720 solution was intravenously administered to each of the dogs (n=4) of Comparative Example 1 for 10 min at a dose of 0.3 mg/kg. An electrocardiogram was recorded for 30 min from the start of administration of the FTY720 solution.
Fingolimod (FTY720, product of Sigma-Aldrich Inc.) was dissolved in 1% by mass lactic acid solution (product of Otsuka Pharmaceutical Factory, Inc.) so as to have a concentration of 3 mg/mL.
as §2, with “3” for “0.3”

[3] = system: human; conditions: 366 cases, 1.25 mg/day, Holter ECG one day after administration; cited from earlier work
[4] = system: dog; conditions: dose 10 times to 30 times greater than that for human; cited from earlier work
[5] = 0.1 mg/kg/10 min i.v., individuals #1, #2, 0.1 mg/kg

CCCCCCCCc1ccc(CCC(N)(CO)CO)cc1 [FTY720, Fingolimod]
PR interval change versus base control ([1]; 0.1 mg/kg i.v.): prolongation of PR interval was observed | Heart rate (HR) ([1]; 0.1 mg/kg/10 min i.v., individuals #1, #2): 105 beats/min | Heart rate (HR) [1, 5]: 104 beats/min | PR interval [1, 5]: 71 ms and 110 ms | change in PR interval ([2]; high-dose 3 mg/kg/10 min i.v.): no change | change in heart rate (HR) ([2]; high-dose 3 mg/kg/10 min i.v.): significantly increased | change in PR interval ([2]; low-dose 0.3 mg/kg/10 min i.v.): no significant change | change in heart rate (HR) ([2]; low-dose 0.3 mg/kg/10 min i.v.): no significant change | cases that developed advanced atrioventricular block (2:1 atrioventricular block) [3]: 3.4% | cases that developed second-degree atrioventricular block (Mobitz type I or type II) [3]: 6.6% | cases that developed third-degree atrioventricular block (complete atrioventricular block) [3]: 0.3% | occurrence of atrioventricular block [4]: not reported
